Data taken from patent US20250332178A1, “METHODS OF TREATING MYCOBACTERIAL INFECTIONS USING TETRACYCLINE COMPOUNDS” (priority 2018, published 2025).
Converted amounts (≈) assume the structure as drawn. Where two headings read alike, the source gives them in different places.

Assays:
[1] = in vivo; cited from earlier work
[2] = system: M. abscessus subsp. abscessus CIP 104536; assay: Time-kill kinetics assay; format: cell-based
Experimental: Briefly, M. abscessus cultures were exposed to antimicrobial drugs at 4-fold increasing concentrations for 7 days at 37° C. under shaking conditions at 96 rpm. […] The drug concentrations ranged from 0.063 to 256 mg/L for both compounds. […] At day 1, 3 and 7 during drug exposure, samples were collected, centrifuged at 14000 xg to avoid anti-NTM drug carry over, serially diluted (10-fold, 10^0-10^7) and subcultured onto solid medium. […] The lower limit of detection was 5 cfu/mL (log 0.7). All experiments were performed in duplicate. Time-kill curves, as well as concentration-effect curves were generated.

[3] = Intra-pulmonary steady-state concentrations (plasma, ELF, alveolar cells) after multiple IV doses in healthy adult subjects; format: in vivo, human; conditions: human, in vivo
Experimental: The remaining 20 subjects received tigecycline as 1 intravenous dose of 100 mg administered as a 30 minute infusion at t=0, followed by 6 intravenous doses of 50 mg administered as 30 minute infusions at t=12, 24, 36, 48, 60, and 72 hours. A study completion visit was conducted on the day following the final test article dose. There was a final follow-up assessment 7 to 14 days following the subject's last dose of test article which may be completed by telephone contact or other interactive technology unless an examination was needed to evaluate adverse events or abnormalities noted at the study completion visit.
Plasma PK samples were collected pre-dose and at 0.5, 1, 1.5, 2, 3, 4, 6, 8, 12 and 24 hours post-dose on day 4. […] One BAL sample was collected from each subject on day 4. Subjects were randomized to one of the following collection times: 0.5, 1, 2, 4, 8, 12 or 24 hours post-dose.

[4] = Stability of antimicrobial drugs, large-plate agar diffusion assay; format: physicochemical; conditions: within the first 24 hours
Experimental: Antimicrobial activity over time was assessed using the standard large-plate agar diffusion assay as previously described in detail (Bennett et al., Appl. Microbiol. 1966, 14 (2): 170-7). In short, a Staphylococcus aureus strain susceptible to omadacycline and a Micrococcus luteus strain susceptible to tigecycline were plated onto solid diagnostic sensitivity test (D.S.T.) agar (Oxoid, Hampshire, UK). A two-fold increasing standard concentration series was prepared.

[5] = system: M. abscessus subsp. abscessus CIP 104536; assay: MIC according to CLSI guidelines; conditions: Mycobacteroides abscessus, CIP104536, read-out: Minimal Inhibitory Concentration (MIC)
Experimental: Vials with M. abscessus suspensions were stored at −80° C. Cultures on solid medium were grown on Mueller Hinton II agar (BD), supplemented with 10% OADC and 0.5% glycerol for 10 days at 37° C. with 5% CO2.

[6] = MIC by broth microdilution in CAMHB, clinical isolates; format: cell-based, Mycobacterium chelonae; conditions: for MIC: read-out: MIC
[7] = system: slow-growing NTM isolates; assay: MIC (CLSI broth dilution), all slow-growing NTM isolates; format: cell-based, nontuberculous mycobacteria; conditions: small number of SGM isolates
[8] = Alveolar Macrophages (AM) concentration (mean ± SD)
[9] = Epithelial lining fluid (ELF) concentration (mean ± SD)
[10] = Plasma concentration (mean ± SD)
[11] = Ratio of Omadacycline Concentrations in Alveolar Cells to Plasma (Mean, SD)
[12] = Ratio of Omadacycline Concentrations in Epithelial Lining Fluid to Plasma (Mean, SD)

CN(C)c1cc(CNCC(C)(C)C)c(O)c2c1C[C@H]1C[C@H]3C(N(C)C)C(O)=C(C(N)=O)C(=O)[C@@]3(O)C(O)=C1C2=O (stereo partly drawn) [Omadacycline, (4aS,5aR,12aS)-4,7-bis(dimethylamino)-3,10,12,12a-tetrahydroxy-9-((neopentylamino)methyl)-1,11-dioxo-1,4,4a,5,5a,6,11,12a-octahydrotetracene-2-carboxamide]
24-hour area under the curve compared to tigecycline [1]: approximately three-fold higher | concentration for 1 log mycobacterial killing ([2]; after 7 days of exposure): 4.0 mg/L | concentration for 2 log mycobacterial killing ([2]; after 7 days of exposure): 4.8 mg/L | concentration for stasis (concentration-effect curve) ([2]; after 7 days of exposure): 3.3 mg/L | concentrations achieving elimination ([2]; time-kill, at day 3-7): no elimination was achieved | concentration showing inhibition of mycobacterial growth ([2]; time-kill, up to 7 days exposure): 4 mg/L | Free-drug AUC72-96, Plasma (Median) [3]: 9610 ng·h/mL | AUC ([3]; AUCmean, Alveolar Cells (AC)): 302000 ng·h/mL | AUC ([3]; AUCmean, Epithelial Lining Fluid (ELF)): 17200 ng·h/mL | AUC ([3]; AUCmean, Plasma): 11700 ng·h/mL | AUC ([3]; AUCmedian, Alveolar Cells (AC)): 292000 ng·h/mL | AUC ([3]; AUCmedian, Epithelial Lining Fluid (ELF)): 16700 ng·h/mL | AUC ([3]; AUCmedian, Plasma): 11800 ng·h/mL | concentration at 0.5 h [3, 8]: 14300 ± 9300 ng/mL | concentration at 1 h [3, 8]: 12800 ± 8480 ng/mL | concentration at 2 h [3, 8]: 10800 ± 7590 ng/mL | concentration at 4 h [3, 8]: 18000 ± 7170 ng/mL | concentration at 8 h [3, 8]: 12300 ± 4700 ng/mL | concentration at 12 h [3, 8]: 12300 ± 4610 ng/mL | concentration at 24 h [3, 8]: 10400 ± 4040 ng/mL | concentration at 0.5 h [3, 9]: 1730 ± 1010 ng/mL | concentration at 1 h [3, 9]: 2250 ± 720 ng/mL | concentration at 2 h [3, 9]: 1510 ± 940 ng/mL | concentration at 4 h [3, 9]: 950 ± 330 ng/mL | concentration at 8 h [3, 9]: 580 ± 190 ng/mL | concentration at 12 h [3, 9]: 610 ± 290 ng/mL | concentration at 24 h [3, 9]: 410 ± 130 ng/mL | Kp ([3]; Penetration Ratio: total-drug ELF AUC72-96 to free-drug plasma AUC72-96 (Median)): 1.93 | Kp ([3]; Penetration ratio AC:Plasma based on AUCmean): 25.8 | Kp ([3]; Penetration ratio AC:Plasma based on AUCmedian): 24.8 | Kp ([3]; Penetration ratio ELF:Plasma based on AUCmean): 1.47 | Kp ([3]; Penetration ratio ELF:Plasma based on AUCmedian): 1.42 | concentration at 0.5 h [3, 10]: 1800 ng/mL | concentration at 1 h [3, 10]: 890 ng/mL | concentration at 2 h [3, 10]: 930 ng/mL | concentration at 4 h [3, 10]: 590 ng/mL | concentration at 8 h [3, 10]: 560 ng/mL | concentration at 12 h [3, 10]: 420 ng/mL | concentration at 24 h [3, 10]: 270 ng/mL | Kp at 0.5 h [3, 11]: 8.12 ± 5.95 | Kp at 1 h [3, 11]: 13.8 ± 7.38 | Kp at 2 h [3, 11]: 12.3 ± 6.57 | Kp at 4 h [3, 11]: 34.7 ± 15.1 | Kp at 8 h [3, 11]: 23.1 ± 11.2 | Kp at 12 h [3, 11]: 29 ± 8.78 | Kp at 24 h [3, 11]: 40.3 ± 10.3 | Kp at 0.5 h [3, 12]: 0.95 ± 0.56 | Kp at 1 h [3, 12]: 2.72 ± 1.26 | Kp at 2 h [3, 12]: 1.5 ± 0.61 | Kp at 4 h [3, 12]: 1.79 ± 0.49 | Kp at 8 h [3, 12]: 1.07 ± 0.45 | Kp at 12 h [3, 12]: 1.44 ± 0.57 | Kp at 24 h [3, 12]: 1.65 ± 0.86 | AUC ([3]; Total-drug AUC72-96, ELF (Median)): 18500 ng·h/mL | Kp ([3]; concentration in epithelial lining fluid relative to plasma): > 1.4 | Cmax ([3]; iv, 100 mg): 2260 ± 760 ng/mL | Vd ([3]; iv, 100 mg): 165 ± 58 L | Kp ([3]; mean concentration in alveolar cells relative to plasma): ~25 | Kp ([3]; mean concentration in epithelial lining fluid higher than in plasma): ≥ 0.4 | decline in concentration [4]: 20% | MIC [5]: 4 µg/mL (≈ 7.19 µM) | MIC90 ([6]; 22 clinical isolates, read-out: MIC90): 0.25 µg/mL (≈ 0.449 µM) | MIC ([6]; isolate No. 1, MC 7323): 0.125 µg/mL (≈ 0.225 µM) | MIC ([6]; isolate No. 2, MC 7534): 0.03 µg/mL (≈ 0.0539 µM) | MIC ([6]; isolate No. 3, MC 7368): 0.03 µg/mL (≈ 0.0539 µM) | MIC ([6]; isolate No. 4, MC 7514): 0.06 µg/mL (≈ 0.108 µM) | MIC ([6]; isolate No. 5, MC 7584): 0.06 µg/mL (≈ 0.108 µM) | MIC ([6]; isolate No. 6, MC 7192): 0.015 µg/mL (≈ 0.0269 µM) | MIC ([6]; isolate No. 7, MC 7466): 0.03 µg/mL (≈ 0.0539 µM) | MIC ([6]; isolate No. 8, MC 7533): 0.25 µg/mL (≈ 0.449 µM) | MIC ([6]; isolate No. 9, MC 7579): 0.125 µg/mL (≈ 0.225 µM) | MIC ([6]; isolate No. 10, MC 7614): 0.125 µg/mL (≈ 0.225 µM) | MIC ([6]; isolate No. 11, MC 7414): 0.125 µg/mL (≈ 0.225 µM) | MIC ([6]; isolate No. 12, MC 7313): 0.125 µg/mL (≈ 0.225 µM) | MIC ([6]; isolate No. 13, MC 7281): 0.25 µg/mL (≈ 0.449 µM) | MIC ([6]; isolate No. 14, MC 7328): 0.015 µg/mL (≈ 0.0269 µM) | MIC ([6]; isolate No. 15, MC 7294): 0.25 µg/mL (≈ 0.449 µM) | MIC ([6]; isolate No. 16, MC 14-S-03): 0.06 µg/mL (≈ 0.108 µM) | MIC ([6]; isolate No. 17, MC 14-S-04): 0.06 µg/mL (≈ 0.108 µM) | MIC ([6]; isolate No. 18, MC 14-S-05): 0.125 µg/mL (≈ 0.225 µM) | MIC ([6]; isolate No. 19, MC 14-S-06): 0.03 µg/mL (≈ 0.0539 µM) | MIC ([6]; isolate No. 20, MC 14-S-07): 0.06 µg/mL (≈ 0.108 µM) | MIC ([6]; isolate No. 21, MC 35757): 0.125 µg/mL (≈ 0.225 µM) | MIC ([6]; isolate No. 22, MC 7302): 0.25 µg/mL (≈ 0.449 µM) | activity against SGM isolates (in words) [7]: MIC values above the highest concentration evaluated
